Tested on: rodent lifetime carcinogenesis bioassay, tumor incidence TD50
Assay: chronic cancer bioassays in animals – CPDB, compiled studies (AID 1745844)

## Cc1cc(-c2ccc(N)c(C)c2)ccc1N
mouse, strain BALB/cStCrlfC3Hf/Nctr, females, in drinking water, site: lung, lesion: adenocarcinoma, dosed 52 weeks, study length 52 weeks
  TD50: 147 mg/kg/day
mouse, strain BALB/cStCrlfC3Hf/Nctr, females, in drinking water, site: lung, lesion: adenocarcinoma, dosed 78 weeks, study length 78 weeks
  TD50: 168 mg/kg/day
mouse, strain BALB/cStCrlfC3Hf/Nctr, females, in drinking water, site: lung, lesion: several types, types named in the paper, dosed 52 weeks, study length 52 weeks
  TD50: 28.1 mg/kg/day
mouse, strain BALB/cStCrlfC3Hf/Nctr, females, in drinking water, site: lung, lesion: several types, types named in the paper, dosed 78 weeks, study length 78 weeks
  TD50: 295 mg/kg/day
mouse, strain BALB/cStCrlfC3Hf/Nctr, males, in drinking water, site: lung, lesion: adenocarcinoma, dosed 52 weeks, study length 52 weeks
  TD50: 123 mg/kg/day
mouse, strain BALB/cStCrlfC3Hf/Nctr, males, in drinking water, site: lung, lesion: adenocarcinoma, dosed 112 weeks, study length 112 weeks
  TD50: 50.1 mg/kg/day
mouse, strain BALB/cStCrlfC3Hf/Nctr, males, in drinking water, site: lung, lesion: several types, types named in the paper, dosed 52 weeks, study length 52 weeks
  TD50: 684 mg/kg/day
mouse, strain BALB/cStCrlfC3Hf/Nctr, males, in drinking water, site: lung, lesion: several types, types named in the paper, dosed 78 weeks, study length 78 weeks
  TD50: 423 mg/kg/day
mouse, strain BALB/cStCrlfC3Hf/Nctr, males, in drinking water, site: lung, lesion: several types, types named in the paper, dosed 112 weeks, study length 112 weeks
  TD50: 28.6 mg/kg/day
rat, strain Fischer 344, females, in drinking water, site: Zymbal's gland, lesion: adenoma + adenoma, bilateral + carcinoma + carcinoma, bilateral, dosed 60 weeks, study length 60 weeks
  TD50: 1.27 mg/kg/day
rat, strain Fischer 344, females, in drinking water, site: Zymbal's gland, lesion: adenoma + adenoma, bilateral, dosed 60 weeks, study length 60 weeks
  TD50: 3.08 mg/kg/day
rat, strain Fischer 344, females, in drinking water, site: Zymbal's gland, lesion: carcinoma + carcinoma, bilateral, dosed 60 weeks, study length 60 weeks
  TD50: 2 mg/kg/day
rat, strain Fischer 344, females, in drinking water, site: all sites, lesion: mononuclear-cell leukemia, dosed 60 weeks, study length 60 weeks
  TD50: 6.46 mg/kg/day
rat, strain Fischer 344, females, in drinking water, site: any site (literature study), lesion: several types, types named in the paper, dosed 60 weeks, study length 60 weeks
  TD50: 0.462 mg/kg/day
rat, strain Fischer 344, females, in drinking water, site: brain, lesion: astrocytoma, malignant + malignant glioma + meningioma, malignant, dosed 60 weeks, study length 60 weeks
  TD50: 15.4 mg/kg/day
rat, strain Fischer 344, females, in drinking water, site: clitoral gland + colon + duodenum + ileum + jejunum + liver + lung + mammary gland + pharynx + rectum + skin + tongue + Zymbal's gland, lesion: adenoma + adenoma, bilateral + carcinoma + carcinoma, bilateral + adenocarcinoma + adenomatous polyp + mucinous adenocarcinoma + mucin, dosed 60 weeks, study length 60 weeks
  TD50: 0.418 mg/kg/day
rat, strain Fischer 344, females, in drinking water, site: clitoral gland, lesion: adenoma + adenoma, bilateral + carcinoma + carcinoma, bilateral, dosed 60 weeks, study length 60 weeks
  TD50: 0.847 mg/kg/day
rat, strain Fischer 344, females, in drinking water, site: clitoral gland, lesion: adenoma + adenoma, bilateral, dosed 60 weeks, study length 60 weeks
  TD50: 1.31 mg/kg/day
rat, strain Fischer 344, females, in drinking water, site: clitoral gland, lesion: carcinoma + carcinoma, bilateral, dosed 60 weeks, study length 60 weeks
  TD50: 2.58 mg/kg/day
rat, strain Fischer 344, females, in drinking water, site: colon + rectum, lesion: adenocarcinoma + adenomatous polyp, dosed 60 weeks, study length 60 weeks
  TD50: 6.65 mg/kg/day
rat, strain Fischer 344, females, in drinking water, site: colon + rectum, lesion: adenomatous polyp, dosed 60 weeks, study length 60 weeks
  TD50: 7.11 mg/kg/day
rat, strain Fischer 344, females, in drinking water, site: duodenum + ileum + jejunum, lesion: adenocarcinoma + adenomatous polyp + mucinous adenocarcinoma + mucinous cystadenocarcinoma, dosed 60 weeks, study length 60 weeks
  TD50: 11 mg/kg/day
rat, strain Fischer 344, females, in drinking water, site: duodenum + ileum + jejunum, lesion: adenocarcinoma + mucinous adenocarcinoma + mucinous cystadenocarcinoma, dosed 60 weeks, study length 60 weeks
  TD50: 15.4 mg/kg/day
rat, strain Fischer 344, females, in drinking water, site: liver, lesion: hepatocellular adenoma + hepatocellular carcinoma + neoplastic nodule, dosed 60 weeks, study length 60 weeks
  TD50: 6.97 mg/kg/day
rat, strain Fischer 344, females, in drinking water, site: liver, lesion: hepatocellular carcinoma + neoplastic nodule, dosed 60 weeks, study length 60 weeks
  TD50: 6.97 mg/kg/day
rat, strain Fischer 344, females, in drinking water, site: liver, lesion: neoplastic nodule, dosed 60 weeks, study length 60 weeks
  TD50: 7.62 mg/kg/day
rat, strain Fischer 344, females, in drinking water, site: lung, lesion: alveolar/bronchiolar adenoma + alveolar/bronchiolar carcinoma, dosed 60 weeks, study length 60 weeks
  TD50: 11.9 mg/kg/day
rat, strain Fischer 344, females, in drinking water, site: lung, lesion: alveolar/bronchiolar adenoma, dosed 60 weeks, study length 60 weeks
  TD50: 13.6 mg/kg/day
rat, strain Fischer 344, females, in drinking water, site: mammary gland, lesion: adenocarcinoma + fibroadenoma, dosed 60 weeks, study length 60 weeks
  TD50: 5.77 mg/kg/day
rat, strain Fischer 344, females, in drinking water, site: mammary gland, lesion: adenocarcinoma, dosed 60 weeks, study length 60 weeks
  TD50: 8.33 mg/kg/day
rat, strain Fischer 344, females, in drinking water, site: pharynx + tongue, lesion: squamous-cell carcinoma + squamous-cell papilloma, dosed 60 weeks, study length 60 weeks
  TD50: 3.2 mg/kg/day
rat, strain Fischer 344, females, in drinking water, site: pharynx + tongue, lesion: squamous-cell carcinoma, dosed 60 weeks, study length 60 weeks
  TD50: 11.8 mg/kg/day
rat, strain Fischer 344, females, in drinking water, site: pharynx + tongue, lesion: squamous-cell papilloma, dosed 60 weeks, study length 60 weeks
  TD50: 4.26 mg/kg/day
rat, strain Fischer 344, females, in drinking water, site: skin, lesion: basal-cell adenoma + basal-cell carcinoma, dosed 60 weeks, study length 60 weeks
  TD50: 3.8 mg/kg/day
rat, strain Fischer 344, females, in drinking water, site: skin, lesion: basal-cell adenoma, dosed 60 weeks, study length 60 weeks
  TD50: 5.77 mg/kg/day
rat, strain Fischer 344, females, in drinking water, site: skin, lesion: basal-cell carcinoma, dosed 60 weeks, study length 60 weeks
  TD50: 11.6 mg/kg/day
rat, strain Fischer 344, females, in drinking water, site: skin, lesion: squamous-cell carcinoma + squamous-cell papilloma, dosed 60 weeks, study length 60 weeks
  TD50: 3.17 mg/kg/day
rat, strain Fischer 344, females, in drinking water, site: skin, lesion: squamous-cell carcinoma, dosed 60 weeks, study length 60 weeks
  TD50: 5.56 mg/kg/day
rat, strain Fischer 344, females, in drinking water, site: skin, lesion: squamous-cell papilloma, dosed 60 weeks, study length 60 weeks
  TD50: 7.06 mg/kg/day
rat, strain Fischer 344, males, in drinking water, site: Zymbal's gland, lesion: adenoma + adenoma, bilateral + carcinoma + carcinoma, bilateral, dosed 58 weeks, study length 60 weeks
  TD50: 1.12 mg/kg/day
rat, strain Fischer 344, males, in drinking water, site: Zymbal's gland, lesion: adenoma + adenoma, bilateral, dosed 58 weeks, study length 60 weeks
  TD50: 2.38 mg/kg/day
rat, strain Fischer 344, males, in drinking water, site: Zymbal's gland, lesion: carcinoma + carcinoma, bilateral, dosed 58 weeks, study length 60 weeks
  TD50: 1.93 mg/kg/day
rat, strain Fischer 344, males, in drinking water, site: adrenal medulla, lesion: pheochromocytoma, benign, dosed 58 weeks, study length 60 weeks
  TD50: 10.6 mg/kg/day
rat, strain Fischer 344, males, in drinking water, site: any site (literature study), lesion: several types, types named in the paper, dosed 58 weeks, study length 60 weeks
  TD50: 0.334 mg/kg/day
rat, strain Fischer 344, males, in drinking water, site: brain, lesion: glioma malignant, focal, mild + malignant glioma + meningioma, malignant, dosed 58 weeks, study length 60 weeks
  TD50: 26.1 mg/kg/day
rat, strain Fischer 344, males, in drinking water, site: cecum + colon + duodenum + ileum + jejunum + large intestine + liver + lung + multiple organs + pharynx + preputial gland + rectum + skin + tongue, lesion: adenomatous polyp + adenocarcinoma + mucinous cystadenocarcinoma + hepatocellular carcinoma + neoplastic nodule + alveolar/bronchi, dosed 58 weeks, study length 60 weeks
  TD50: 0.346 mg/kg/day
rat, strain Fischer 344, males, in drinking water, site: cecum + colon + large intestine + rectum, lesion: adenomatous polyp + adenocarcinoma + mucinous cystadenocarcinoma, dosed 58 weeks, study length 60 weeks
  TD50: 3.76 mg/kg/day
rat, strain Fischer 344, males, in drinking water, site: cecum + colon + rectum, lesion: adenomatous polyp, dosed 58 weeks, study length 60 weeks
  TD50: 4.87 mg/kg/day
rat, strain Fischer 344, males, in drinking water, site: colon + large intestine + rectum, lesion: adenocarcinoma + mucinous cystadenocarcinoma, dosed 58 weeks, study length 60 weeks
  TD50: 14.4 mg/kg/day
rat, strain Fischer 344, males, in drinking water, site: duodenum + ileum + jejunum, lesion: mucinous cystadenocarcinoma + adenocarcinoma + adenomatous polyp, dosed 58 weeks, study length 60 weeks
  TD50: 6.99 mg/kg/day
rat, strain Fischer 344, males, in drinking water, site: duodenum + ileum + jejunum, lesion: mucinous cystadenocarcinoma + adenocarcinoma, dosed 58 weeks, study length 60 weeks
  TD50: 7.79 mg/kg/day
rat, strain Fischer 344, males, in drinking water, site: liver, lesion: hepatocellular adenoma + hepatocellular carcinoma + neoplastic nodule, dosed 58 weeks, study length 60 weeks
  TD50: 0.898 mg/kg/day
rat, strain Fischer 344, males, in drinking water, site: liver, lesion: hepatocellular carcinoma + neoplastic nodule, dosed 58 weeks, study length 60 weeks
  TD50: 0.898 mg/kg/day
rat, strain Fischer 344, males, in drinking water, site: liver, lesion: hepatocellular carcinoma, dosed 58 weeks, study length 60 weeks
  TD50: 2.76 mg/kg/day
rat, strain Fischer 344, males, in drinking water, site: liver, lesion: neoplastic nodule, dosed 58 weeks, study length 60 weeks
  TD50: 1.12 mg/kg/day
rat, strain Fischer 344, males, in drinking water, site: lung, lesion: alveolar/bronchiolar adenoma + alveolar/bronchiolar carcinoma, dosed 58 weeks, study length 60 weeks
  TD50: 4.93 mg/kg/day
rat, strain Fischer 344, males, in drinking water, site: lung, lesion: alveolar/bronchiolar adenoma, dosed 58 weeks, study length 60 weeks
  TD50: 5.47 mg/kg/day
rat, strain Fischer 344, males, in drinking water, site: multiple organs, lesion: mesothelioma, malignant, dosed 58 weeks, study length 60 weeks
  TD50: 9.45 mg/kg/day
rat, strain Fischer 344, males, in drinking water, site: pharynx + tongue, lesion: squamous-cell carcinoma + squamous-cell papilloma, dosed 58 weeks, study length 60 weeks
  TD50: 8.47 mg/kg/day
rat, strain Fischer 344, males, in drinking water, site: pharynx + tongue, lesion: squamous-cell carcinoma, dosed 58 weeks, study length 60 weeks
  TD50: 26.7 mg/kg/day
rat, strain Fischer 344, males, in drinking water, site: preputial gland, lesion: adenoma + carcinoma, dosed 58 weeks, study length 60 weeks
  TD50: 3.96 mg/kg/day
rat, strain Fischer 344, males, in drinking water, site: preputial gland, lesion: adenoma, dosed 58 weeks, study length 60 weeks
  TD50: 4.94 mg/kg/day
rat, strain Fischer 344, males, in drinking water, site: skin, lesion: basal-cell adenoma + basal-cell carcinoma, dosed 58 weeks, study length 60 weeks
  TD50: 0.5 mg/kg/day
rat, strain Fischer 344, males, in drinking water, site: skin, lesion: basal-cell adenoma, dosed 58 weeks, study length 60 weeks
  TD50: 0.534 mg/kg/day
rat, strain Fischer 344, males, in drinking water, site: skin, lesion: basal-cell carcinoma, dosed 58 weeks, study length 60 weeks
  TD50: 8.85 mg/kg/day
rat, strain Fischer 344, males, in drinking water, site: skin, lesion: keratoacanthoma, dosed 58 weeks, study length 60 weeks
  TD50: 4.58 mg/kg/day
rat, strain Fischer 344, males, in drinking water, site: skin, lesion: sebaceous adenoma, dosed 58 weeks, study length 60 weeks
  TD50: 5.62 mg/kg/day
rat, strain Fischer 344, males, in drinking water, site: skin, lesion: squamous-cell carcinoma + squamous-cell papilloma, dosed 58 weeks, study length 60 weeks
  TD50: 1.55 mg/kg/day
rat, strain Fischer 344, males, in drinking water, site: skin, lesion: squamous-cell carcinoma, dosed 58 weeks, study length 60 weeks
  TD50: 2.8 mg/kg/day
rat, strain Fischer 344, males, in drinking water, site: skin, lesion: squamous-cell papilloma, dosed 58 weeks, study length 60 weeks
  TD50: 3.28 mg/kg/day

## NNC=O
mouse, strain Swiss albino, females, in drinking water, site: liver, lesion: several types, types named in the paper, dosed 83 weeks, study length 83 weeks
  TD50: 6860 mg/kg/day
mouse, strain Swiss albino, females, in drinking water, site: lung, lesion: several types, types named in the paper, dosed 83 weeks, study length 83 weeks
  TD50: 36 mg/kg/day
mouse, strain Swiss albino, males, in drinking water, site: liver, lesion: several types, types named in the paper, dosed 83 weeks, study length 83 weeks
  TD50: 1150 mg/kg/day
mouse, strain Swiss albino, males, in drinking water, site: lung, lesion: several types, types named in the paper, dosed 83 weeks, study length 83 weeks
  carcinogen call: positive

## CC(=O)NN
mouse, strain Swiss, females, by gavage, site: lung, lesion: several types, types named in the paper, dosed 34 weeks, study length 95 weeks
  TD50: 18.8 mg/kg/day
mouse, strain Swiss, females, by gavage, site: lung, lesion: several types, types named in the paper, dosed 95 weeks, study length 95 weeks
  TD50: 53.8 mg/kg/day
mouse, strain Swiss, males, by gavage, site: lung, lesion: several types, types named in the paper, dosed 34 weeks, study length 95 weeks
  TD50: 4.48 mg/kg/day
mouse, strain Swiss, males, by gavage, site: lung, lesion: several types, types named in the paper, dosed 95 weeks, study length 95 weeks
  TD50: 35.6 mg/kg/day

## CC(=O)Nc1nc(NC(C)=O)nc(-c2ccc([N+](=O)[O-])o2)n1
rat, strain Sprague-Dawley, females, in feed, site: any site (literature study), lesion: several types, types named in the paper, dosed 46 weeks, study length 66 weeks
  TD50: 12.8 mg/kg/day
rat, strain Sprague-Dawley, females, in feed, site: mammary gland, lesion: adenocarcinoma, dosed 46 weeks, study length 66 weeks
  TD50: 29 mg/kg/day
rat, strain Sprague-Dawley, females, in feed, site: mammary gland, lesion: several types, types named in the paper, dosed 46 weeks, study length 66 weeks
  TD50: 14.1 mg/kg/day

— PubChem BioAssay AID1745844 (Carcinogenic Potency Database (CPDB), 2022)
